Source: patent publication US9221832B2, “Heterocyclic amide derivatives as P2X7 receptor antagonists” (ACTELION PHARMACEUTICALS LTD., priority 2011, dated 2015)

Target: human recombinant P2X7 receptor (Homo sapiens (Human), UniProt Q99572)
Test: YO-PRO assay: P2X7 receptor antagonistic activity
Assay type: cell-based
Conditions: HEK cells expressing human P2X7

human recombinant P2X7 receptor, sequence (Q99572 whole entry): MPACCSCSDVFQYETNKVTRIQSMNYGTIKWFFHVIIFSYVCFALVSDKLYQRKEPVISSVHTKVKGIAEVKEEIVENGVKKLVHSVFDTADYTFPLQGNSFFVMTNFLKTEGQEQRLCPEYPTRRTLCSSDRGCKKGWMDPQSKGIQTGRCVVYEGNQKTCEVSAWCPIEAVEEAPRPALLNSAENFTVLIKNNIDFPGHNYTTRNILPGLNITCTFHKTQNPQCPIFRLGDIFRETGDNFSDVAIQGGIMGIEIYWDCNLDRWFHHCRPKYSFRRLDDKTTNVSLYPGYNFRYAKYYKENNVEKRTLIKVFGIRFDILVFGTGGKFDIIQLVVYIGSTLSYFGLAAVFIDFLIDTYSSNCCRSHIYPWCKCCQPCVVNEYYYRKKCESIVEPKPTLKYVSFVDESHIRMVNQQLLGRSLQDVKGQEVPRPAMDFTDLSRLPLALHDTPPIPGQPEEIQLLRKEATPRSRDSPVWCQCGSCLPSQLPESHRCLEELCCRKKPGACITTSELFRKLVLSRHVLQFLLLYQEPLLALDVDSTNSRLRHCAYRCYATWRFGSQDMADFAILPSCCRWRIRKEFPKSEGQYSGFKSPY

Compound	IC50 [nM]
N#Cc1cccc(CC(=O)NC2COc3ncccc32)c1Cl (single isomer, unassigned) [Example 99, 2-(2-Chloro-3-cyano-phenyl)-N-2,3-dihydro-furo[2,3-b]pyridin-3-yl-acetamide]	40
Cc1cc(Cl)cc(Cl)c1CC(=O)NC1COc2cnccc21 (single isomer, unassigned) [Example 101, 2-(2,4-Dichloro-6-methyl-phenyl)-N-2,3-dihydro-furo[2,3-c]pyridin-3-yl-acetamide]	598
Cc1cc(Cl)cc(Cl)c1CC(=O)NC1COc2cnccc21 (single isomer, unassigned) [Example 102, 2-(2,4-Dichloro-6-methyl-phenyl)-N-2,3-dihydro-furo[2,3-c]pyridin-3-yl-acetamide]	2.2
O=C(NC1COc2ncccc21)C1CCc2cc(Cl)cc(Cl)c21 (single isomer, unassigned) [Example 146, 5,7-dichloro-N-(2,3-dihydrofuro[2,3-b]pyridin-3-yl)-2,3-dihydro-1H-indene-1-carboxamide]	160
O=C(NC1COc2ncccc21)C1CCc2cc(Cl)cc(Cl)c21 (single isomer, unassigned) [Example 147, 5,7-dichloro-N-(2,3-dihydrofuro[2,3-b]pyridin-3-yl)-2,3-dihydro-1H-indene-1-carboxamide]	40
CC(C(=O)NC1COc2ncccc21)c1ccc(Cl)cc1 (centres unmarked) [Example 23, 2-(4-Chloro-phenyl)-N-(2,3-dihydro-furo[2,3-b]pyridin-3-yl)-propionamide]	828
CC(C(=O)NC1CCOc2ncccc21)c1ccc(Cl)cc1 (centres unmarked) [Example 64, 2-(4-Chloro-phenyl)-N-(3,4-dihydro-2H-pyrano[2,3-b]pyridin-4-yl)-propionamide]	1520
O=C(NC1COc2ncccc21)C(CO)c1ccc(Cl)cc1Cl (centres unmarked) [Example 79, 2-(2,4-Dichloro-phenyl)-N-2,3-dihydro-furo[2,3-b]pyridin-3-yl-3-hydroxy-propionamide]	21
O=C(NC1COc2ncccc21)C(CN1CCCC1)c1ccc(Cl)cc1Cl (centres unmarked) [Example 81, 2-(2,4-Dichloro-phenyl)-N-2,3-dihydro-furo[2,3-b]pyridin-3-yl-3-pyrrolidin-1-yl-propionamide]	1970
CCC(C(=O)NC1COc2ncccc21)c1ccc(Cl)cc1Cl (centres unmarked) [Example 84, 2-(2,4-Dichloro-phenyl)-N-2,3-dihydro-furo[2,3-b]pyridin-3-yl-butyramide]	55
CC(C(=O)NC1COc2ncccc21)c1ccc(Cl)cc1Cl (centres unmarked) [Example 85, 2-(2,4-Dichloro-phenyl)-N-2,3-dihydro-furo[2,3-b]pyridin-3-yl-propionamide]	15
[2H]C([2H])([2H])C(C(=O)NC1COc2ncccc21)c1ccc(Cl)cc1Cl (centres unmarked) [Example 86, 2-(2,4-Dichloro-phenyl)-2-trideuteromethyl-N-2,3-dihydro-furo[2,3-b]pyridin-3-yl-acetamide]	33
O=C(NC1COc2ncccc21)C1CCc2cc(Cl)cc(Cl)c21 (centres unmarked) [Example 130, 5,7-dichloro-N-(2,3-dihydrofuro[2,3-b]pyridin-3-yl)-2,3-dihydro-1H-indene-1-carboxamide]	137
O=C(NC1COc2ncccc21)C1Cc2ccc(Cl)cc2C1 (centres unmarked) [Example 149, 5-chloro-N-(2,3-dihydrofuro[2,3-b]pyridin-3-yl)-2,3-dihydro-1H-indene-2-carboxamide]	4690
